Measurements reported in the supplement of paper PMC10307832.

Columns and labels:
Test in all cases: relative viability (nuclei count vs DMSO), 5 days (fraction); higher = more cells survive
[1] = compound: C1COCCN1C2=NC(=NC3=C2OC4=C3C=CC=N4)C5=CC(=CC=C5)NC(=O)C6=CN=C(C=C6)N + CC(C)C[C@H](NC(=O)[C@H](Cc1ccccc1)NC(=O)c1cnccn1)B(O)O [Bortezomib] (partner 0.002 µM)
In short: (§1)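 A single step with final 0.05% Triton X-100, 1% formaldehyde and 1 ug/ml Hoechst fixed the cells and stained nuclei 5 days after treatment. Lung cancer cell lines in 1536-well plates had been treated by pin tool the day after seeding with one drug alone or a fixed anchor-drug dose plus five library-drug doses (not always all listed) in √10 steps, and nuclei were counted on 4× images. Relative viability is the ratio of nuclei in treated wells to nuclei in vehicle wells, taken as the median of duplicate plates.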

[2] = compound: C1COCCN1C2=NC(=NC3=C2OC4=C3C=CC=N4)C5=CC(=CC=C5)NC(=O)C6=CN=C(C=C6)N + CCNC(=O)c1noc(-c2cc(C(C)C)c(O)cc2O)c1-c1ccc(CN2CCOCC2)cc1 [Luminespib] (partner 0.01 µM)
In short: as §1

[3] = compound: C1COCCN1C2=NC(=NC3=C2OC4=C3C=CC=N4)C5=CC(=CC=C5)NC(=O)C6=CN=C(C=C6)N + CS(=O)(=O)N1CCN(Cc2cc3nc(-c4cccc5[nH]ncc45)nc(N4CCOCC4)c3s2)CC1 [Pictilisib] (partner 1 µM)
In short: as §1

[4] = compound: Nc1ccccc1NC(=O)c1ccc(CNC(=O)OCc2cccnc2)cc1 [Entinostat] + CC(=O)Nc1cccc(-n2c(=O)n(C3CC3)c(=O)c3c(Nc4ccc(I)cc4F)n(C)c(=O)c(C)c32)c1 [Trametinib] (partner 0.02 µM)
In short: as §1

Cell Line | relative viability ([1]; first compound 0.02 µM) | relative viability ([1]; first compound 0.06325 µM) | relative viability ([1]; first compound 0.2 µM) | relative viability ([1]; first compound 0.6325 µM) | relative viability ([1]; first compound 2 µM) | relative viability ([2]; first compound 0.02 µM) | relative viability ([2]; first compound 0.06325 µM) | relative viability ([2]; first compound 0.2 µM) | relative viability ([2]; first compound 0.6325 µM) | relative viability ([2]; first compound 2 µM) | relative viability ([3]; first compound 0.02 µM) | relative viability ([3]; first compound 0.06325 µM) | relative viability ([3]; first compound 0.2 µM) | relative viability ([3]; first compound 0.6325 µM) | relative viability ([3]; first compound 2 µM) | relative viability ([4]; first compound 0.02 µM) | relative viability ([4]; first compound 0.06325 µM) | relative viability ([4]; first compound 0.2 µM) | relative viability ([4]; first compound 0.6325 µM) | relative viability ([4]; first compound 2 µM)
RERF-LC-KJ | 1.04 | 1.21 | 1.04 | 1.05 | 0.798 | 1.22 | 1.3 | 1.02 | 1.38 | 0.633 | 0.46 | 0.618 | 0.508 | 0.507 | 0.478 | 0.915 | 0.833 | 0.726 | 0.418 | 0.323
CAL-12T | 0.935 | 0.98 | 0.861 | 0.871 | 0.84 | 0.465 | 0.602 | 0.21 | 0.418 | 0.267 | 0.464 | 0.479 | 0.391 | 0.356 | 0.455 | 0.362 | 0.306 | 0.355 | 0.297 | 0.252
COR-L 105 | 0.655 | 0.872 | 0.657 | 0.66 | 0.474 | 0.975 | 0.682 | 0.677 | 0.674 | 0.472 | 0.433 | 0.351 | 0.389 | 0.344 | 0.33 | 0.475 | 0.45 | 0.45 | 0.413 | 0.406
NCI-H2405 | 0.995 | 1.02 | 0.973 | 0.947 | 0.902 | 0.647 | 0.644 | 0.639 | 0.536 | 0.473 | 0.431 | 0.45 | 0.414 | 0.428 | 0.423 | 0.647 | 0.722 | 0.651 | 0.608 | 0.542
NCI-H2228 | 1.25 | 1.1 | 0.975 | 0.84 | 0.488 | 0.143 | 0.194 | 0.209 | 0.115 | 0.111 | 0.486 | 0.346 | 0.38 | 0.234 | 0.256 | 0.466 | 0.587 | 0.524 | 0.224 | 0.183
PC-14 | 0.877 | 1.04 | 0.835 | 0.822 | 0.375 | 0.184 | 0.189 | 0.13 | 0.151 | 0.148 | 0.903 | 1.05 | 0.512 | 0.558 | 0.261 | 0.653 | 0.61 | 0.502 | 0.145 | 0.0754
IA-LM |  | 0.78 | 0.537 | 0.645 | 0.39 |  |  |  |  |  |  | 0.301 | 0.319 | 0.353 | 0.182 |  |  |  |  | 
A549 |  |  |  |  |  |  |  |  |  |  | 0.628 | 0.577 | 0.397 | 0.391 | 0.24 |  |  |  |  | 
NCI-H2342 |  |  |  |  |  | 0.746 | 0.768 | 0.719 | 0.665 | 0.596 |  |  |  |  |  | 0.855 | 0.659 | 0.713 | 0.605 | 0.673
NCI-H1623 |  |  |  |  |  | 0.486 | 0.503 | 0.461 | 0.439 | 0.835 |  |  |  |  |  |  |  |  |  | 
SW 1573 | 1.16 | 0.904 | 1.01 | 0.888 | 0.474 | 0.152 | 0.232 | 0.118 | 0.176 | 0.3 | 0.555 | 0.54 | 0.621 | 0.534 | 0.344 | 0.652 | 0.722 | 0.733 | 0.554 | 0.431
